Active and inactive are the calls of the source. The rule behind the calls is not given here. Residues, ends and D or L forms follow the SMILES beside them.

For test [1], the system named is U2OS. Kind of test: Inhibition of mitochondrial-mediated apoptosis in human U2OS cells assessed as reduction in ROS level preincubated for 2 hrs followed by doxycyclin addition measured after 4 hrs by DCFH-DA dye based fluorescence assay. Format: functional, cell-based.
Test [2] concerns the target T1, Succinate dehydrogenase [ubiquinone] iron-sulfur subunit, mitochondrial (Homo sapiens) (UniProt P21912).
T1 sequence (whole entry): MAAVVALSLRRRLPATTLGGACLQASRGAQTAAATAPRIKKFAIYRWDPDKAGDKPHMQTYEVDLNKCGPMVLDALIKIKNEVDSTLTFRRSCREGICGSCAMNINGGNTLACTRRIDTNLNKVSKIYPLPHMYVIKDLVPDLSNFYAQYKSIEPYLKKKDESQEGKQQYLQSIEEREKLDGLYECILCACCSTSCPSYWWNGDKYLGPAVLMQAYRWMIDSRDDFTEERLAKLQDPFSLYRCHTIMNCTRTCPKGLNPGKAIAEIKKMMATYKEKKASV
Briefly: Irreversible inhibition of SDHB in human U2OS cells over-expressing Bim assessed as inhibition of apoptosis preincubated for 1 hr followed by compound washout and doxycyclin addition to induce Bim protein expression measured after 24 hrs by Cell Titer-Glo assay. In kind it is cell-based.

Test [3] in a line: Glutathione reactivity of the compound at 20 uM after 2 hrs by UPLC analysis.
Test [4] is described as follows: Cysteine reactivity of the compound at 20 uM after 2 hrs by UPLC analysis.
Test [5] in a line: Lysine reactivity of the compound at 20 uM after 2 hrs by UPLC analysis.
Test [6] deals with U2OS. Kind of test: Inhibition of mitochondrial-mediated apoptosis in human U2OS cells assessed as reduction in mitochondrial membrane potential loss at 10 uM preincubated for 1 hr followed by doxycyclin addition measured after 4 hrs by TMRM dye based confocal microscopic method. Format: functional, cell-based.
In test [7] the test system is U2OS. Briefly: Inhibition of apoptosis in human U2OS cells over-expressing Bim assessed as mitochondrial cytochrome c release at 20 uM after 1 hr in presence of doxycyclin by confocal microscopic method. In kind it is functional, cell-based.
In test [8] the test system is U2OS. Kind of test: Inhibition of mitochondrial-mediated apoptosis in human U2OS cells assessed as reduction in mitochondrial membrane potential loss at 1 uM preincubated for 1 hr followed by doxycyclin addition measured after 4 hrs by TMRM dye based confocal microscopic method. Format: functional, cell-based.
Test [9] has as its system U2OS. Briefly: Inhibition of apoptosis in human U2OS cells over-expressing Bim assessed as mitochondrial cytochrome c release at 10 uM after 1 hr in presence of doxycyclin by confocal microscopic method. In kind it is functional, cell-based.
In test [10] the test system is U2OS. Briefly: Inhibition of mitochondrial-mediated apoptosis in human U2OS cells assessed as reduction in mitochondrial membrane potential loss at 3 nM preincubated for 1 hr followed by doxycyclin addition measured after 4 hrs by TMRM dye based confocal microscopic method. In kind it is functional, cell-based.
Test [11] is described as follows: Glutathione reactivity of the compound in PBS buffer at 100 nM up to 35 mins by LC-MS/Ms analysis.
Test [12] is filed under the species Rattus norvegicus. Kind of test: Protection against middle cerebral artery occlusion-induced transient focal cerebral ischemia in Sprague-Dawley rat assessed as reduction in brain infarct volume at 50 to 200 uM pretreated for 1 hr followed by reperfusion measured 24 hrs post MCAO by TTC staining based assay. Format: functional.
For test [13], the system named is U2OS. Kind of test: Inhibition of mitochondrial-mediated apoptosis in human U2OS cells assessed as reduction in mitochondrial membrane potential loss at 100 nM preincubated for 1 hr followed by doxycyclin addition measured after 4 hrs by TMRM dye based confocal microscopic method. Format: functional, cell-based.
The species entered for test [14] is Rattus norvegicus. Briefly: Protection against middle cerebral artery occlusion-induced transient focal cerebral ischemia in Sprague-Dawley rat assessed as reduction in brain infarct volume at 10 to 200 uM pretreated for 1 hr followed by reperfusion measured 24 hrs post MCAO by TTC staining based assay. Format: functional.

On to `COc1cccc(Cn2cc(-c3cc(C(F)(F)F)nc(S(C)(=O)=O)n3)ccc2=O)c1`, for which the inhibition entry in test [1] and in test [2] was “Active” each time.

Consider `Cc1cc(-c2cccs2)nc(S(C)(=O)=O)n1`, for which the result in [3], in test [4] and in test [5] was inactive.

As to `CS(=O)(=O)c1nc(-c2ccccc2)cc(C(F)(F)F)n1`, the inhibition entry in test [2] is “Active”.

With `CC(C)[C@H](NC(=O)OCc1ccccc1)C(=O)N[C@@H](C)C(=O)N[C@@H](CC(=O)O)C(=O)O` (HELM PEPTIDE1{[O=C(OCc1ccccc1)[*:2]].V.A.D}$$$$V2.0), the inhibition result in test [6] and in test [7] was “inactive” each time.

Take `CS(=O)(=O)c1nc(-c2ccc(=O)n(Cc3ccc(Cl)cc3)c2)cc(C(F)(F)F)n1`: the inhibition entry in test [1], in test [2] and in [8] was “Active” each time.

With `COc1ccc(Cn2cc(-c3cc(C(F)(F)F)nc(S(C)(=O)=O)n3)ccc2=O)cc1`, the inhibition result in test [2] is “Active”.

For the compound `Cc1ccc(O)c(NC(=O)CCCS(=O)(=O)c2nc(-c3cccs3)cc(C(F)(F)F)n2)c1`, the inhibition result in test [9] is “Active”.

In the case of `CS(=O)(=O)c1nc(-c2ccc(=O)n(Cc3ccccc3Cl)c2)cc(C(F)(F)F)n1`, in test [2], the inhibition result is “Active”.

With `COc1ccc(Cn2cc(-c3cc(C(F)(F)F)nc(S(=O)(=O)CCCC(=O)NC45CC6CC(CC(C6)C4)C5)n3)ccc2=O)cc1OC`, the inhibition entry in [10] and in test [2] was “Active” throughout. In addition, the outcome in [3], in [11], in [4] and in test [12] was Active. For the same compound, the result in test [5] was inactive.

Consider `CCOC(=O)CCS(=O)(=O)c1nc(-c2cccs2)cc(C(F)(F)F)n1`, for which the inhibition result in test [2] is “Active”.

For `CCCOc1cccc(Cn2cc(-c3cc(C(F)(F)F)nc(S(C)(=O)=O)n3)ccc2=O)c1`, the inhibition result in [1] and in test [2] was “Active” in each case.

For `CS(=O)(=O)c1nc(-c2cccs2)cc(C(F)(F)F)n1`, the outcome in test [3] and in [4] was Active. In addition, in [2], the inhibition result is “Active”. In test [5], the outcome was inactive.

For the compound `COc1ccc(Cn2cc(-c3cc(C(F)(F)F)nc(S(C)(=O)=O)n3)ccc2=O)cc1OC`, the inhibition entry in test [13], in test [1] and in test [2] was “Active” throughout. Moreover, the outcome in test [14], in test [3], in test [11] and in test [4] was Active. Further, the outcome in [5] was inactive.

For the compound `CS(=O)(=O)c1nc(-c2ccc(=O)n(Cc3cccc(Cl)c3)c2)cc(C(F)(F)F)n1`, the inhibition entry in [1], in [2] and in test [8] was “Active” each time.

`CS(=O)(=O)c1nc(-c2ccc(=O)n(Cc3ccccc3)c2)cc(C(F)(F)F)n1`: the inhibition result in [1], in test [6] and in test [2] was “Active” in each case.
